According to publication PMC10366102, “Dose escalation and expansion cohorts in patients with advanced breast cancer in a Phase I study of the CDK7-inhibitor samuraciclib” (Nature Communications, 2023):
Read-outs that look alike come from different tables or passages of the source.

What was measured:
clinical = test: clinical
Method: PK samples were taken in Module 1A, Module 1 B-1 and Module 2A (see schedule of assessments in Supplementary Information for timing of PK samples). PK parameters were derived using standard non-compartmental methods.
Samuraciclib pharmacokinetic (PK) analyses were performed using the PK Population (defined as all patients who received at least 1 dose of samuraciclib and who had at least 1 samuraciclib plasma concentration above the lower limit of quantification and no important AEs or protocol deviations or other event that could have impacted the PK analysis). PK parameters were derived using standard non-compartmental methods, with graphical presentations of PK data as appropriate. Samuraciclib plasma concentrations and derived PK parameters were summarized by dose level. Parameters following single and multiple dosing were summarized separately. Appropriate statistics were used to summarize plasma concentrations and PK parameters. […]

[1] = Module 4 food effect study; assay type: in vivo, human
Method: Carrick Therapeutics CT7001_001, Volume 3, Module 1, Part B-1 (TNBC) […]
in a test using the whole-cell patch-clamp technique (human embryonic kidney [HEK] cells transfected with hERG), and the CT7001 IC50 in the K+ channel was determined to be greater […]
Cardiovascular toxicity potential was also studied in vivo in dogs. Oral administration of 5, 15, and 20 mg/kg CT7001 had no effect on haemodynamic parameters, ECG parameters, or body temperature in the dog, compared with control article (vehicle) administration.
Effects of CT7001 on the central nervous system (CNS [Irwin]) and respiratory systems were […]
CT7001 has low mutagenic potential. At concentrations up to the lower limit of toxicity, it induced no mutations in a five strains Ames test.
2.3.2 Current Clinical Data of CT7001
A first-in-human multi-module Phase I/II clinical study commenced in November 2017 […]
only clinical study conducted to date.
The single- and multiple-ascending dose Phase 1a part of the study (Module 1, Part A) is completed. 33 dosed patients have completed this part of Module 1 (120, 240, 480 mg and a step-down dose level of 360 mg, all taken once daily (OD), and 180 mg given twice a day (BID), all in a fasted state). […]
Module 4 evaluated the effect of food on CT7001 bioavailability in cancer patients. […]

[2] = parameters: method as in ref IB; details: ref IB, cited from earlier work
CYP2C19 = test system: CYP2C19; parameters: method as in ref IB; details: human microsomes; ref IB; cited from earlier work
CYP1A2 = test system: CYP1A2; parameters: method as in ref IB; details: human microsomes; ref IB; cited from earlier work
CYP2C9 = test system: CYP2C9; parameters: method as in ref IB; details: human microsomes; ref IB; cited from earlier work
[3] = parameters: method as in ref IB; details: dog microsomes; ref IB; cited from earlier work
[4] = parameters: method as in ref IB; details: human microsomes and hepatocytes in vitro; ref IB; cited from earlier work
[5] = parameters: method as in ref IB; details: ref IB, cited from earlier work; remark: listed apart in the source
cytochrome P450 enzymes = test system: cytochrome P450 enzymes; parameters: method as in ref IB; details: followed by 3A4 and a small contribution by 2C19; ref IB; cited from earlier work
rats = test system: rats; parameters: method as in ref IB; details: ref IB; cited from earlier work
[6] = parameters: method as in ref IB; details: ref IB; cited from earlier work
human tumour xenograft = test system: human tumour xenograft; parameters: method as in ref IB; details: ref IB, cited from earlier work
CDK7 = details: cited from earlier work

**Q.** With `CC(C)c1cnn2c(NCc3ccccc3)cc(NC[C@H]3CCNC[C@@H]3O)nc12` [samuraciclib, Samuraciclib] as the compound, how does the Apparent clearance (clinical; Module 1A) read?
**A.** The Apparent clearance was “moderate to high”.

**Q.** What about the “Time to steady state” value (clinical; both, human, in vivo) of the same compound?
**A.** Its value is 8 to 15 days.

**Q.** And the Tmax (clinical; both, human, in vivo)?
**A.** The Tmax was 1.5 to 4 h.

**Q.** And the half-life (clinical; both, human, in vivo)?
**A.** Its half-life is about 75 h.

**Q.** What about the half-life (clinical; both, human, in vivo, 180 mg) of the same compound?
**A.** Its half-life is 54.8 to 82.3 h.

**Q.** What about the half-life (clinical; both, human, in vivo, 480 mg) of the same compound?
**A.** Its half-life is 30 to 38 h.

**Q.** What about the Distribution (clinical; in vivo) of the same compound?
**A.** Its Distribution is “extensively distributed”.

**Q.** And the “Time dependence of PK” value (clinical; in vivo)?
**A.** The value was “time independent”.

**Q.** And the “Food effect on exposure or % variability” value [1]?
**A.** Its value is “no food effect was seen”.

**Q.** And the Oral bioavailability ([2]; dog)?
**A.** The Oral bioavailability was “good oral bioavailability”.

**Q.** And the “Apparent elimination half-life (T½)” value ([2]; dogs)?
**A.** Its value is 9.5 h.

**Q.** What about the Plasma clearance ([2]; dogs) of the same compound?
**A.** Its Plasma clearance is “high”.

**Q.** What about the Volume of distribution ([2]; dogs) of the same compound?
**A.** The Volume of distribution was “high volume of distribution”.

**Q.** And the IC50 (CYP1A2)?
**A.** The IC50 was […].

**Q.** What about the Intrinsic clearance [3] of the same compound?
**A.** The Intrinsic clearance was “intermediate”.

**Q.** And the Metabolic stability [4]?
**A.** The Metabolic stability was “metabolically stable”.

**Q.** What about the Overall turnover ([5]; human hepatocytes) of the same compound?
**A.** The Overall turnover was “low”.

**Q.** What about the “Phase II metabolism (e.g., glucuronidation)” value ([5]; mouse and human hepatocytes) of the same compound?
**A.** Its value is “No evidence”.

**Q.** What about the CYP mediated clearance (cytochrome P450 enzymes) of the same compound?
**A.** The CYP mediated clearance was “mainly occurs via CYP2D6”.

**Q.** And the “Effects on CNS (Irwin) and respiratory systems” value (rats)?
**A.** The value was “No significant effects”.

**Q.** And the Phototoxicity [6]?
**A.** Its Phototoxicity is “not phototoxic”.

**Q.** And the Anti-tumour efficacy (human tumour xenograft; 100 mg/kg/day)?
**A.** Its Anti-tumour efficacy is “robust efficacy”.

**Q.** And the Anti-tumour efficacy (human tumour xenograft; 30 and 50 mg/kg/day)?
**A.** Its Anti-tumour efficacy is “moderate efficacy”.
